Reference: the supplement of paper PMC10307832

Columns and labels:
Experiment in all cases: relative viability (nuclei count vs DMSO), 5 days (fraction); higher = more cells survive
[1] = compound: Cn1cc(-c2cnn3c(N)c(Br)c([C@@H]4CCCNC4)nc23)cn1
How it was run: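 Only plates meeting two conditions passed: control CV below 25% and at least one doubling. Lung cancer cell lines, kept overnight at 37 °C in 1536-well plates, were pinned with five library-drug doses (not always all listed) √10 apart on vehicle-anchored plates and grown 5 days without medium change. A one-step fix, permeabilisation and Hoechst stain preceded 4× imaging and MetaXpress nuclear counting. Viability equals treated-well nuclei divided by vehicle-well nuclei, as the median over plates.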

[2] = compound: Cn1cc(-c2cnn3c(N)c(Br)c([C@@H]4CCCNC4)nc23)cn1 + Cc1cc(Nc2cc(N3CCN(C)CC3)nc(Sc3ccc(NC(=O)C4CC4)cc3)n2)n[nH]1 [Tozasertib] (partner 0.1 µM)
How it was run: (§1)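 Relative viability equals treated-well nuclei counts divided by vehicle-well nuclei counts. Counts came from 4× images of lung cancer cell lines grown in 1536-well plates for 5 days after pin-tool dosing on the day after seeding. Dosing used one drug alone or a fixed anchor-drug dose plus five library-drug doses (not always all listed) in √10 steps, and values are medians of duplicate plates.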

[3] = compound: Cn1cc(-c2cnn3c(N)c(Br)c([C@@H]4CCCNC4)nc23)cn1 + CC1(C)CCC(c2ccc(Cl)cc2)=C(CN2CCN(c3ccc(C(=O)NS(=O)(=O)c4ccc(N[C@H](CCN5CCOCC5)CSc5ccccc5)c(S(=O)(=O)C(F)(F)F)c4)cc3)CC2)C1 [Navitoclax] (partner 0.5 µM)
How it was run: as §1

[4] = compound: Cn1cc(-c2cnn3c(N)c(Br)c([C@@H]4CCCNC4)nc23)cn1 + N=C(N)NC(=N)NCCc1ccccc1 [Phenformin] (partner 250 µM)
How it was run: as §1

Cell Line	relative viability ([1]; 0.05 µM)	relative viability ([1]; 0.1581 µM)	relative viability ([1]; 0.5 µM)	relative viability ([1]; 1.581 µM)	relative viability ([1]; 5 µM)	relative viability ([2]; first compound 0.05 µM)	relative viability ([2]; first compound 0.1581 µM)	relative viability ([2]; first compound 0.5 µM)	relative viability ([2]; first compound 1.581 µM)	relative viability ([2]; first compound 5 µM)	relative viability ([3]; first compound 0.05 µM)	relative viability ([3]; first compound 0.1581 µM)	relative viability ([3]; first compound 0.5 µM)	relative viability ([3]; first compound 1.581 µM)	relative viability ([3]; first compound 5 µM)	relative viability ([4]; first compound 0.05 µM)	relative viability ([4]; first compound 0.1581 µM)	relative viability ([4]; first compound 0.5 µM)	relative viability ([4]; first compound 1.581 µM)	relative viability ([4]; first compound 5 µM)
201T	0.972	1.01	0.996	0.86	0.746	0.932	0.992	0.898	0.776	0.758	1.14	1.18	1.16	1.32	1.22	0.452	0.517	0.429	0.366	0.405
A549	1.01	1.07	0.946	0.847	0.813	–	–	–	–	–	1.25	1.3	1.14	0.916	0.917	0.158	0.907	0.215	0.149	0.115
A-427	1.04	0.919	1.01	0.784	0.607	0.185	0.246	0.206	0.192	0.154	1.06	1	0.9	0.953	0.733	0.348	0.324	0.288	0.284	0.269
ABC-1	0.938	0.988	0.758	0.566	0.455	0.159	0.156	0.219	0.127	0.136	–	–	–	–	–	0.252	0.236	0.254	0.218	0.192
BEN	1.05	0.902	0.904	0.972	0.834	0.606	0.494	0.467	0.714	0.489	0.0592	0.289	0.0589	0.0666	0.0768	0.249	0.213	0.288	0.268	0.284
CAL-12T	1.03	1.06	1.08	0.68	0.265	0.38	0.326	0.255	0.174	0.113	1.36	1.24	1.12	0.755	0.159	0.478	0.585	0.537	0.377	0.155
Calu-6	1.06	0.905	0.828	0.438	0.219	–	–	–	–	–	0.997	0.597	0.68	0.211	0.146	–	–	–	–	–
EBC-1	1.12	1.16	0.882	0.822	0.869	–	–	–	–	–	0.39	0.347	0.286	0.304	0.238	–	–	–	–	–
IA-LM	0.917	0.976	1.05	0.779	0.541	–	–	–	–	–	0.858	0.974	0.609	0.412	0.252	–	–	–	–	–
LCLC-103H	1.03	0.986	1.05	0.909	1.03	0.543	0.57	0.469	0.364	0.313	–	–	–	–	–	0.297	0.338	0.364	0.3	0.299
NCI-H358	0.988	1.1	0.877	0.771	0.749	0.0994	0.103	0.0971	0.0967	0.117	–	–	–	–	–	0.293	0.344	0.308	0.216	0.261
NCI-H522	0.927	0.986	0.879	0.828	1.02	0.575	0.638	0.6	0.577	0.543	–	–	–	–	–	0.69	0.625	0.642	0.669	0.664
NCI-H650	0.994	0.875	1.03	0.844	0.715	0.732	0.753	0.821	0.654	0.603	–	–	–	–	–	0.426	0.413	0.447	0.486	0.399
NCI-H661	1.01	0.977	1.03	1.01	0.772	0.344	0.343	0.371	0.372	0.379	–	–	–	–	–	0.273	0.259	0.29	0.283	0.276
NCI-H1299	1.03	1.07	1.01	0.926	0.795	–	–	–	–	–	1.03	1.06	1.08	1.02	0.936	–	–	–	–	–
NCI-H1563	0.941	0.878	0.966	0.942	0.873	–	–	–	–	–	–	–	–	–	–	0.593	0.658	0.642	0.614	0.605
NCI-H1648	0.926	0.958	0.669	0.749	0.83	0.395	0.436	–	0.377	0.381	–	–	–	–	–	–	–	–	–	–
NCI-H1703	0.925	0.664	0.529	0.347	0.159	–	–	–	–	–	1.08	0.441	0.309	0.147	0.122	–	–	–	–	–
NCI-H1792	0.869	1.08	0.96	0.575	0.835	–	–	–	–	–	0.35	0.674	0.322	0.366	0.677	0.189	0.345	0.261	0.203	0.236
NCI-H2342	0.974	1.23	1.05	0.947	0.91	0.547	0.522	0.531	0.52	0.408	–	–	–	–	–	0.578	0.6	0.682	0.533	0.593
